Target: C1/C2 + Gsα (VC1:IIC2 plus Gsα-GTPγS) (Canis lupus familiaris; Rattus norvegicus; Bos taurus, UniProt P26769+P30803)
Assay: […]cAMP formation from [α-32P]ATP, stimulation of catalysis
Assay type: biochemical

Sequence of C1/C2 + Gsα (VC1:IIC2 plus Gsα-GTPγS) (P30803 442-656): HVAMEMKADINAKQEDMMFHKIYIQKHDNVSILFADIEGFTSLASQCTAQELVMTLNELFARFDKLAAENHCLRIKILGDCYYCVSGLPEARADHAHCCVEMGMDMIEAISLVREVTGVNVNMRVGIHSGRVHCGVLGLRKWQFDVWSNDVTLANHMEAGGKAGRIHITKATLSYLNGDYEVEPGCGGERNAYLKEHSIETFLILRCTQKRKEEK
Sequence of C1/C2 + Gsα (VC1:IIC2 plus Gsα-GTPγS) (P26769 870-1081): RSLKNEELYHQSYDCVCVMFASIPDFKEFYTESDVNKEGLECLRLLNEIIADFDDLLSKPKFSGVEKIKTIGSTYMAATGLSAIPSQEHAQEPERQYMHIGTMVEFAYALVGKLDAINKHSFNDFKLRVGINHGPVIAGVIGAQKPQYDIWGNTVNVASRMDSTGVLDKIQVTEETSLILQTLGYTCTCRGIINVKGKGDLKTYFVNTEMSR
Sequence of C1/C2 + Gsα (VC1:IIC2 plus Gsα-GTPγS) (P04896 2-394 partner): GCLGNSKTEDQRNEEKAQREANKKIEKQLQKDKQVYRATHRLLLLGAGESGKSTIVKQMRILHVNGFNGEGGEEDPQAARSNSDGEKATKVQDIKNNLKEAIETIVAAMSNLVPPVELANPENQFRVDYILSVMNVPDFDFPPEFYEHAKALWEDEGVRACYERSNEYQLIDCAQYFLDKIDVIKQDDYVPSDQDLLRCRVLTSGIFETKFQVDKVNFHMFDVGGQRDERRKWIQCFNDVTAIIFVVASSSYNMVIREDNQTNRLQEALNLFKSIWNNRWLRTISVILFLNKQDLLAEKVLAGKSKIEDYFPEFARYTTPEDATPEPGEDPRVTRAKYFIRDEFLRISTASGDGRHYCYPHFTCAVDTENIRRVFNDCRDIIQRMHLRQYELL

SMILES	EC50 [µM]
C=C[C@@]1(C)CC(=O)[C@]2(O)[C@@]3(C)[C@@H](O)CCC(C)(C)[C@@H]3[C@H](OC(C)=O)[C@H](O)[C@@]2(C)O1 [6A7DA-FS]	2.6 ± 1
C=C[C@@]1(C)CC(=O)[C@H]2[C@](C)(O1)[C@@H](OC(C)=O)[C@@H](O)[C@H]1C(C)(C)CC[C@H](O)[C@@]12C [9d-FS]	19.5 ± 0.7
C=C[C@@]1(C)CC(=O)[C@]2(O)[C@@]3(C)[C@@H](O)CCC(C)(C)[C@@H]3[C@H](O)[C@H](OC(=O)CCCN3CCN(C)CC3)[C@@]2(C)O1 [DMB-FS]	27.6 ± 7
C=C[C@@]1(C)CC(=O)[C@]2(O)[C@@]3(C)[C@@H](O)CCC(C)(C)[C@@H]3[C@H](O)[C@H](OC(C)=O)[C@@]2(C)O1 [FS]	7.4 ± 1.2

From PMC2692545 (Biochemical pharmacology, 2009)
